Ends that are not written are not given here.
Experiments:
[1] = system: human red blood cells; details: 10 mM phosphate buffer saline pH 7.4, 25 °C, 4 h, visual inspection, 0.1% Triton X-100 positive control
Experimental: Compounds were subjected to a hemolysis assay to assess the hemolytic effect on human red blood cells (hRBCs). The blood was obtained from Interregionale Blutspende SRK AG, Bern, Switzerland. 1.5 mL of whole blood was centrifuged at 3000 rpm for 15 minutes at 4 °C. The plasma was discarded, and the hRBC pellet was re-suspended in 5 mL of PBS (pH 7.4) then centrifuged at 3000 rpm for 5 minutes at 4 °C. The washing of hRBC was repeated three times and the remaining pellet was re-suspended in 10 mL of PBS.
The samples were prepared as the initial concentration of 4000 μg mL^−1 in PBS, added to the first well of 96-well microtiter plate (TPP, untreated) and diluted serially by 1/2. […] Controls on each plate included a blank medium control (PBS 100 μL) and a hemolytic activity control (0.1% Triton X-100). 100 μL of hRBC suspension was incubated with 100 μL of each sample in PBS in 96-well plate (Nunc 96-Well Polystyrene Conical Bottom MicroWell Plates). After the plates were incubated for 4 h at room temperature, minimal hemolytic concentration (MHC) was determined by visual inspection of the wells. 100 μL supernatants was carefully pipetted to a flat bottom, clear wells plate (TPP® tissue culture plates, polystyrene).

[2] = system: P. aeruginosa; assay: MIC, broth microdilution; type: cell-based, Pseudomonas aeruginosa; details: Mueller–Hinton medium, 16–20 h at 37 °C, trifluoroacetate salts
Source text: (§1) We synthesized the selected 14 GN and 14 GP peptides by solid phase peptide synthesis and evaluated the activity of their HPLC-purified trifluoroacetate salts by determining minimum inhibitory concentrations (MIC) against bacteria by broth microdilution assay in Muller–Hinton medium and minimum hemolysis concentrations (MHC) on human red blood cells by serial dilution in phosphate buffer saline (Table 1).
(§2) To determine the minimal inhibitory concentration (MIC), the broth microdilution method was used. A colony of bacteria was grown in LB (Lysogeny broth) medium overnight at 37 °C. The samples were prepared as stock solutions of 8 mg mL^−1 in H2O, diluted to the initial concentration of 64 or 128 μg mL^−1 in 300 μL Mueller–Hinton (MH) medium, added to the first well of 96-well microtiter plate (TPP, untreated), and diluted serially by 1/2. The concentration of the bacteria was quantified by measuring absorbance at 600 nm and diluted to OD600 = 0.022 in MH medium. The sample solutions (150 μL) were mixed with 4 μL diluted bacterial suspension with a final inoculation of about of 5 × 10^5 CFU. The plates were incubated at 37 °C until satisfactory growth (∼18 h). […] The MIC was defined as the lowest concentration of the peptide dendrimer that inhibited visible growth of the tested bacteria, as detected after treatment with MTT.

[3] = system: A. baumannii; assay: MIC, broth microdilution; type: cell-based, Acinetobacter baumannii; details: Mueller–Hinton medium, 16–20 h at 37 °C, trifluoroacetate salts
Source text: as §1, §2

[4] = system: MRSA; assay: MIC, broth microdilution; type: cell-based, methicillin-resistant Staphylococcus aureus; details: Mueller–Hinton medium, 16–20 h at 37 °C, trifluoroacetate salts
Source text: as §1, §2

[5] = system: E. coli; assay: MIC, broth microdilution; type: cell-based, Escherichia coli; details: Mueller–Hinton medium, 16–20 h at 37 °C, trifluoroacetate salts
Source text: as §1, §2

[6] = system: P. aeruginosa PA14 2P4 (pmrB); assay: MIC, broth microdilution; type: cell-based; details: spontaneous mutant, polymyxin B resistant; Müller–Hinton medium, 16–20 h, 37 °C; two independent experiments in duplicate
Experimental: (§3) To determine the minimal inhibitory concentration (MIC), the broth microdilution method was used. A colony of bacteria was grown in LB (Lysogeny broth) medium overnight at 37 °C. The samples were prepared as stock solutions of 8 mg mL^−1 in H2O, diluted to the initial concentration of 64 or 128 μg mL^−1 in 300 μL Mueller–Hinton (MH) medium, added to the first well of 96-well microtiter plate (TPP, untreated), and diluted serially by 1/2. The concentration of the bacteria was quantified by measuring absorbance at 600 nm and diluted to OD600 = 0.022 in MH medium. The sample solutions (150 μL) were mixed with 4 μL diluted bacterial suspension with a final inoculation of about of 5 × 10^5 CFU. The plates were incubated at 37 °C until satisfactory growth (∼18 h). For each test, two columns of the plate were kept for sterility control (broth only) and growth control (broth with bacterial inoculums, no antibiotics). The MIC was defined as the lowest concentration of the peptide dendrimer that inhibited visible growth of the tested bacteria, as detected after treatment with MTT.

[7] = system: P. aeruginosa PA14 4.13 (phoQ); assay: MIC, broth microdilution; type: cell-based; details: spontaneous mutant, polymyxin B resistant; Müller–Hinton medium, 16–20 h, 37 °C; two independent experiments in duplicate
Experimental: as §3

[8] = system: P. aeruginosa PA14 4.18 (pmrB); assay: MIC, broth microdilution; type: cell-based; details: spontaneous mutant, polymyxin B resistant; Müller–Hinton medium, 16–20 h, 37 °C; two independent experiments in duplicate
Experimental: as §3

[9] = system: P. aeruginosa PA14; assay: MIC, broth microdilution; type: cell-based; details: Gram-negative; Müller–Hinton medium, 16–20 h, 37 °C; two independent experiments in duplicate
Experimental: as §3

[10] = system: B. cenocepacia; type: cell-based; details: MDR Gram-negative strain; Müller–Hinton medium, 16–20 h, 37 °C; two independent experiments in duplicate
Experimental: as §3

[11] = system: E. cloacae; type: cell-based; details: MDR Gram-negative strain; Müller–Hinton medium, 16–20 h, 37 °C; two independent experiments in duplicate
Experimental: as §3

[12] = system: P. aeruginosa ZEM-1A; type: cell-based; details: MDR Gram-negative strain; Müller–Hinton medium, 16–20 h, 37 °C; two independent experiments in duplicate
Experimental: as §3

[13] = system: P. aeruginosa ZEM9A; type: cell-based; details: MDR Gram-negative strain; Müller–Hinton medium, 16–20 h, 37 °C; two independent experiments in duplicate
Experimental: as §3

[14] = system: S. epidermidis; type: cell-based; details: MDR Gram-positive strain; Müller–Hinton medium, 16–20 h, 37 °C; two independent experiments in duplicate; in µg/mL
Experimental: as §3

[15] = system: S. maltophilia; type: cell-based; details: MDR Gram-negative strain; Müller–Hinton medium, 16–20 h, 37 °C; two independent experiments in duplicate
Experimental: as §3

[16] = system: K. pneumoniae (OXA-48); type: cell-based, Klebsiella pneumoniae; details: MDR Gram-negative strain; Müller–Hinton medium, 16–20 h, 37 °C; two independent experiments in duplicate
Experimental: as §3

[17] = system: K. pneumoniae NCTC148; type: cell-based, Klebsiella pneumoniae; details: MDR Gram-negative strain; Müller–Hinton medium, 16–20 h, 37 °C; two independent experiments in duplicate
Experimental: as §3

Row | Substance | MHC (minimal hemolytic concentration) [1] [µg/mL] | other results
1 | AGRLQKVFKVIAK-NH2 [GN13] | >2000 | –
2 | AKKVVKKIYKRFQK-NH2 [GP10] | >2000 | –
3 | AKRIRKLIKKIFKKI-NH2 [GN1] | >2000 | –
4 | ARKFRRLVKKLR-NH2 [GP11] | >2000 | –
5 | ARKKWRKRLKKLKI-NH2 [GP9] | >2000 | –
6 | ARKWRKFLKKI-NH2 [GP7] | >2000 | –
7 | FLHSIGKAIGRLLR-NH2 [GP3] | 250 | –
8 | FLKAVKKLIPSLF-NH2 [GP1] | 2000 | –
9 | GIGAVLNVAKKLL-NH2 [GP4] | >2000 | –
10 | GNWRKIVHKIKKAG-NH2 [GN12] | >2000 | –
11 | GRIKRIRKIIHKY-NH2 [GP8] | >2000 | –
12 | IDKWKAAFKKIKNLF-NH2 [GN3] | 500 | –
13 | IHKLAKLAKNVL-NH2 [GN14] | >2000 | –
14 | IRRIRKKIKKIFKKI-NH2 [GN10] | >2000 | –
15 | KFFRKLKKLVKK-NH2 [GN5] | >2000 | –
16 | KRIRKWVRRILKKL-NH2 [GN7] | 250 | –
17 | KRLWKIRQRIAK-NH2 [GP13] | >2000 | –
18 | KRLWKRIYRLLKK-NH2 [GN9] | 250 | –
19 | KVARFLKKFFR-NH2 [GP5] | >2000 | –
20 | LKKLWKRIIKVGR-NH2 [GP6] | >2000 | –
21 | LNALKKVFQKIH-NH2 [GP14] | >2000 | –
22 | LNALKKVFQKIRQGL [GN4, ML-generated linear peptide carboxamide from the P. aeruginosa/A. baumannii model] | >2000 | MIC P. aeruginosa [2]: 32 µg/mL; MIC A. baumannii [3]: 16 µg/mL; MIC MRSA [4]: >64 µg/mL; MIC E. coli [5]: 4 µg/mL
23 | LRKARRLLKKLRARL-NH2 [GN11] | >2000 | –
24 | LRKARRLVKKLA-NH2 [GP12] | >2000 | –
25 | LRKFWKKIRKFLKKI-NH2 [GN8] | 62.5 | –
26 | Polymyxin B | – | MIC P. aeruginosa PA14 2P4 (pmrB) [6]: 2 µg/mL; MIC P. aeruginosa PA14 4.13 (phoQ) [7]: 1 µg/mL; MIC P. aeruginosa PA14 4.18 (pmrB) [8]: 2 µg/mL; MIC P. aeruginosa PA14 [9]: < 0.5 µg/mL; MIC B. cenocepacia [10]: > 64 µg/mL; MIC E. cloacae [11]: 1 µg/mL; MIC P. aeruginosa ZEM-1A [12]: 0.5 µg/mL; MIC P. aeruginosa ZEM9A [13]: 4 µg/mL; MIC S. epidermidis [14]: 32–64; MIC S. maltophilia [15]: 0.5 µg/mL; MIC K. pneumoniae (OXA-48) [16]: 1 µg/mL; MIC K. pneumoniae NCTC148 [17]: 1 µg/mL
27 | RLRKKWRKLKKLL-NH2 [GN6] | 2000 | –
28 | RRWKWRRKIKKWL-NH2 [GN2] | 1000 | –
29 | RWRWPILGRILR-NH2 [GP2] | 500 | –

From article PMC8285431, “Machine learning designs non-hemolytic antimicrobial peptides” (Chemical Science, 2021)
